The results in this text go back to ChEMBL document CHEMBL5058646 (2022).

For orientation: Tm means the temperature at the midpoint of the melting transition. As a reminder, the inhibition is the change of the read-out against control, counted positive when it falls.

Experiment [1] has as its target T1, Zinc finger and BTB domain-containing protein 24 (Homo sapiens) (UniProt O43167).
T1 sequence (whole entry): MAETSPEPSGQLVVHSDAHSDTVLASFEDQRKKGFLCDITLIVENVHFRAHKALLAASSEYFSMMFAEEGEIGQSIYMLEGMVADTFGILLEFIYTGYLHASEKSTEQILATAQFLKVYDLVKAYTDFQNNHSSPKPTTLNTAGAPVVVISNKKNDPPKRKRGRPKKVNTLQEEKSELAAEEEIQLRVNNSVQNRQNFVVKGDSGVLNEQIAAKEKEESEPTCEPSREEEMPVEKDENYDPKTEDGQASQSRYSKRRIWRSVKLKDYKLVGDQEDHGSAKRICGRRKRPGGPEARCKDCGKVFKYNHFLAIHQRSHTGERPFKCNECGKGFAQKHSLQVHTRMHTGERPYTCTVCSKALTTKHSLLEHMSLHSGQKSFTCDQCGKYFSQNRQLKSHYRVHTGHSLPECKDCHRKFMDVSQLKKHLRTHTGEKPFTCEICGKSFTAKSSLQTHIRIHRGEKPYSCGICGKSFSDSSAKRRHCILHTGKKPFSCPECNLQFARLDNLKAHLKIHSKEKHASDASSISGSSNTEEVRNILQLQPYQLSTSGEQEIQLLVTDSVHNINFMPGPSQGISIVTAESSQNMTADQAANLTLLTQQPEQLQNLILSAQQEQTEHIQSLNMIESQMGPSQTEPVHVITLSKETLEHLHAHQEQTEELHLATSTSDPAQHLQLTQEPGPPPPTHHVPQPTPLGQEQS
The following applies: SUD4, Compound concentration 1.0 uM.

Experiment [2] addresses Serine/threonine-protein kinase 4 (Homo sapiens) (UniProt Q13043). The experiment can be described thus: STK4 SGC Tm panel (DSF). The following applies: Compound concentration 20.0 uM.
Experiment [3] deals with Beta-1 adrenergic receptor (Homo sapiens) (UniProt P08588). The following applies: Compound concentration 10.0 uM.
Chain of Beta-1 adrenergic receptor (Homo sapiens) (P08588 whole entry, looked up): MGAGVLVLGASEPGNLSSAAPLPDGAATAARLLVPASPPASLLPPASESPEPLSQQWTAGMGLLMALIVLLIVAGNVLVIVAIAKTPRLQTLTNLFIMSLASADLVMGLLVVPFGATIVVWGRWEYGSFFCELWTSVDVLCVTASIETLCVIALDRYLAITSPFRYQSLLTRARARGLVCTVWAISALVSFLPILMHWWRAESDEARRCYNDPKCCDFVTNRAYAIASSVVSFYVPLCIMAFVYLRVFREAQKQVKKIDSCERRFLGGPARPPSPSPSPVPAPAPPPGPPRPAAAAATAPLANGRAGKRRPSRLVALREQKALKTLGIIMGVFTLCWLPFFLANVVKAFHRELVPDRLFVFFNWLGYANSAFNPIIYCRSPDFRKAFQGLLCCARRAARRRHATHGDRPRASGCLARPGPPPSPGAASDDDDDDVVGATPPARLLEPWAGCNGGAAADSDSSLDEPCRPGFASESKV
The target in experiment [4] is Serine/threonine-protein kinase pim-1 (Homo sapiens) (UniProt P11309). The experiment can be described thus: PIM1 SGC Tm panel (DSF). The following applies: Compound concentration 20.0 uM.
Experiment [5] deals with Mitogen-activated protein kinase 1 (Homo sapiens) (UniProt P28482). The experiment can be described thus: MAPK1 SGC Tm panel (DSF). The following applies: Compound concentration 20.0 uM.
In experiment [6] the target is Serine/threonine-protein kinase B-raf (Homo sapiens) (UniProt P15056). The experiment is described as follows: BRAF SGC Tm panel (DSF). The following applies: Compound concentration 20.0 uM.
Chain of Serine/threonine-protein kinase B-raf (Homo sapiens) (P15056 whole entry): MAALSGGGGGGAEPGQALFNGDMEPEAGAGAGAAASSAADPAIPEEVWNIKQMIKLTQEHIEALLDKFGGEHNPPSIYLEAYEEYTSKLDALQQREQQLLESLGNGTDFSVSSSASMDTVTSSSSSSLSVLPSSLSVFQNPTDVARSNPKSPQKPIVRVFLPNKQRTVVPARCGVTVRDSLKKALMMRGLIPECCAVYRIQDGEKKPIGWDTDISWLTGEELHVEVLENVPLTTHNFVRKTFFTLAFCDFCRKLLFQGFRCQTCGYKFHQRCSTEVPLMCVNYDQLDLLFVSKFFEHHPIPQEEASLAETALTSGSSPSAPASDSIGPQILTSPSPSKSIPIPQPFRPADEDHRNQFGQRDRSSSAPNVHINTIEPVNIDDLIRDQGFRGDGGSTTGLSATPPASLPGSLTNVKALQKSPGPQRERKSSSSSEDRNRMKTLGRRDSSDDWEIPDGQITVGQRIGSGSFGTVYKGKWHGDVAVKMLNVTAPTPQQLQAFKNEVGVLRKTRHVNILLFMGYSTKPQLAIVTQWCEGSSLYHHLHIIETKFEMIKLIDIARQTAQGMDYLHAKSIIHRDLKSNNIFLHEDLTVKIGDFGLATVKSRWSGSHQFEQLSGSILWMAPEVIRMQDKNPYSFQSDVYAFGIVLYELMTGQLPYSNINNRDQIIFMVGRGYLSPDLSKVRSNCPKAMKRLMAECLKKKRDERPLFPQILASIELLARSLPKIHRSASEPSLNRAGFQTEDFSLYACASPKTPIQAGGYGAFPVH
Experiment [7] has as its target Tyrosine-protein kinase Fes/Fps (Homo sapiens) (UniProt P07332). The experiment can be described thus: FES SGC Tm panel (DSF). The following applies: Compound concentration 20.0 uM.
Experiment [8] has as its target Alpha-2B adrenergic receptor (Homo sapiens) (UniProt P18089). The following applies: Compound concentration 10.0 uM.
Experiment [9] deals with 5-hydroxytryptamine receptor 5A (Homo sapiens) (UniProt P47898). The following applies: Compound concentration 10.0 uM.
Experiment [10] has as its target T2, Zinc finger and BTB domain-containing protein 44 (Homo sapiens) (UniProt Q8NCP5).
T2 sequence (whole entry): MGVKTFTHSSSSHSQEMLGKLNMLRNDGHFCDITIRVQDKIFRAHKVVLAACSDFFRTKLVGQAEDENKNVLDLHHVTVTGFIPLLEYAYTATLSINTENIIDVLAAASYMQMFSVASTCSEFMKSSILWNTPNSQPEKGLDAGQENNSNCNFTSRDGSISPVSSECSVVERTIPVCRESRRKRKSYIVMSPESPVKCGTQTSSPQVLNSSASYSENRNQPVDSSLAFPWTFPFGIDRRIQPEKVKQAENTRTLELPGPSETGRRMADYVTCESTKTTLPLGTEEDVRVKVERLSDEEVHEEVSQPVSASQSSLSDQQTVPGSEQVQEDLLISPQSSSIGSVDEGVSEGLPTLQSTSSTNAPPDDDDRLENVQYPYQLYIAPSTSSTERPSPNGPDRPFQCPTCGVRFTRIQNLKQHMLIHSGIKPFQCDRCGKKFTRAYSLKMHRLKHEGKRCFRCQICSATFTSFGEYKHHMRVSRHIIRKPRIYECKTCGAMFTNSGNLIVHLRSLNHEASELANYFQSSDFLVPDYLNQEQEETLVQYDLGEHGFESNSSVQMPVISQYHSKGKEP
The following applies: SUD4, Compound concentration 1.0 uM.

In experiment [11] the target is Dual specificity tyrosine-phosphorylation-regulated kinase 1A (Homo sapiens) (UniProt Q13627). The experiment can be described thus: DYRK1A SGC Tm panel (DSF). The following applies: Compound concentration 20.0 uM.
Experiment [12] has as its target Sodium-dependent dopamine transporter (Homo sapiens, UniProt Q01959). The following applies: Compound concentration 10.0 uM.
Experiment [13] concerns the target 5-hydroxytryptamine receptor 1A (Homo sapiens) (UniProt P08908). The following applies: Compound concentration 10.0 uM.
Experiment [14] concerns the target T3, Zinc finger and BTB domain-containing protein 9 (Homo sapiens) (UniProt Q96C00).
T3 sequence (whole entry): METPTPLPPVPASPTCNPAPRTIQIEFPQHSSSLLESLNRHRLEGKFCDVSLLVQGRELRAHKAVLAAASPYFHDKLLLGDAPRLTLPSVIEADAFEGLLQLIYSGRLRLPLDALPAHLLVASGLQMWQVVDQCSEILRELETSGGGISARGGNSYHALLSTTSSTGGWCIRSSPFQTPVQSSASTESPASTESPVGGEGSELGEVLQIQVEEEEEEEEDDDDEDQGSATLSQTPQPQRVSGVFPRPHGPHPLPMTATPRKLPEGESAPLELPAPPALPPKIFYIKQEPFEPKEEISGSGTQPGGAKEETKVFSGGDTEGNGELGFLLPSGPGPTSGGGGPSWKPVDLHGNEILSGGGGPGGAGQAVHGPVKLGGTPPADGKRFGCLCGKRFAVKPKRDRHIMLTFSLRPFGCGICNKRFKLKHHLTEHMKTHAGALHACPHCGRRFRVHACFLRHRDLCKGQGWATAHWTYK
The following applies: OCI-Ly1, Compound concentration 1.0 uM.

The target of experiment [15] is B-cell lymphoma 6 protein (Homo sapiens, UniProt P41182). The following applies: OCI-Ly1, Compound concentration 1.0 uM.
Experiment [16] deals with Serine/threonine-protein kinase MRCK alpha (Homo sapiens) (UniProt Q5VT25). The experiment can be described thus: CDC42BPA SGC Tm panel (DSF). The following applies: Compound concentration 20.0 uM.
Chain of Serine/threonine-protein kinase MRCK alpha (Homo sapiens) (Q5VT25 whole entry, looked up): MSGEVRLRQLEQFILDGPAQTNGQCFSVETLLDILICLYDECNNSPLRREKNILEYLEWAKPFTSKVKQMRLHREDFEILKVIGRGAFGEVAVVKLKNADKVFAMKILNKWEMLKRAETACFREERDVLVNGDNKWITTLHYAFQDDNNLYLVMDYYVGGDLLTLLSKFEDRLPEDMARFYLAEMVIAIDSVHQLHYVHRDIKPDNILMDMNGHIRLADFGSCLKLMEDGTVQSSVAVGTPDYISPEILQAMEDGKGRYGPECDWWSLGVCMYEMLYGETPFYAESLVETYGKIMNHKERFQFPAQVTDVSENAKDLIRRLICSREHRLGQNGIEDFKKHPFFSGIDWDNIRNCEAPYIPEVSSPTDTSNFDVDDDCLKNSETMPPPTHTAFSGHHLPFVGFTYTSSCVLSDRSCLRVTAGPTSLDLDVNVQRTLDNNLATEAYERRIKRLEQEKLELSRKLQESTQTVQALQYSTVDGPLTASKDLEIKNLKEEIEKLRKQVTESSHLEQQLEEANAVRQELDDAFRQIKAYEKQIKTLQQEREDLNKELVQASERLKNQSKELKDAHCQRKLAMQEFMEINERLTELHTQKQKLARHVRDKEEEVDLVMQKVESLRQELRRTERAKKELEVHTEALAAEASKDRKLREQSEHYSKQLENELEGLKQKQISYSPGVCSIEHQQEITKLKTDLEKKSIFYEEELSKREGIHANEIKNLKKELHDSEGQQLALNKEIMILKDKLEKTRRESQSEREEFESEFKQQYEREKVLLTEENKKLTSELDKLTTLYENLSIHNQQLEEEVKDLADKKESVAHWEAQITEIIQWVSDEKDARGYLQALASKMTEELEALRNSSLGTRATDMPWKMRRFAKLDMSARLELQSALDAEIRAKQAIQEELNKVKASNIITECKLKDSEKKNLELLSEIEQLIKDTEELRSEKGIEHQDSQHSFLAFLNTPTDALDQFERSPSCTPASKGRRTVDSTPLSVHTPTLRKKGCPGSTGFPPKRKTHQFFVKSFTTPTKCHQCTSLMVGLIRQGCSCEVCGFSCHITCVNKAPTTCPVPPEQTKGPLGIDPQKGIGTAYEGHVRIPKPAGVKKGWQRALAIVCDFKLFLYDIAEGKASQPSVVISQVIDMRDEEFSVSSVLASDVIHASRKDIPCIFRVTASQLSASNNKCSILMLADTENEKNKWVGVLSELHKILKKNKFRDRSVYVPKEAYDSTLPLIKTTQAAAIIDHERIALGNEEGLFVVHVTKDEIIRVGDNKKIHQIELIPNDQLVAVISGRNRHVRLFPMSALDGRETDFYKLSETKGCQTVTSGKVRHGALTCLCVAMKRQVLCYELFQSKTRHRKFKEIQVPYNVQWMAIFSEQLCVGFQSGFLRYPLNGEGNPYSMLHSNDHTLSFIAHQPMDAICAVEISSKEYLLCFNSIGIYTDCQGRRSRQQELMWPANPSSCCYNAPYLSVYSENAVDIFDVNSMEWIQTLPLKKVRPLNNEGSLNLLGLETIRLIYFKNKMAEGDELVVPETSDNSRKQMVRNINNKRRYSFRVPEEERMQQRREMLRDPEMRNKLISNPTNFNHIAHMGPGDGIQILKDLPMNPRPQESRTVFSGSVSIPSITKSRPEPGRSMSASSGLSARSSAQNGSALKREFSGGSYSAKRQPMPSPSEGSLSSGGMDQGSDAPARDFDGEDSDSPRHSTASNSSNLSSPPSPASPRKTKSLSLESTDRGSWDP
In experiment [17] the target is Dual specificity mitogen-activated protein kinase kinase 6 (Homo sapiens) (UniProt P52564). The experiment can be described thus: MAP2K6 SGC Tm panel (DSF). The following applies: Compound concentration 20.0 uM.
For experiment [18], the target named is Aurora kinase A (Homo sapiens) (UniProt O14965). The experiment can be described thus: STK6 SGC Tm panel (DSF). The following applies: Compound concentration 20.0 uM.
Experiment [19] addresses Muscarinic acetylcholine receptor M5 (Homo sapiens) (UniProt P08912). The following applies: Compound concentration 10.0 uM.
The target in experiment [20] is Ephrin type-A receptor 5 (Homo sapiens) (UniProt P54756). The experiment is described as follows: EPHA5 SGC Tm panel (DSF). The following applies: Compound concentration 20.0 uM.
The target in experiment [21] is Transcription intermediary factor 1-alpha (Homo sapiens) (UniProt O15164). The experiment is described as follows: TIF1 SGC Tm panel (DSF). The following applies: Compound concentration 20.0 uM.

Chain of Serine/threonine-protein kinase 4 (Homo sapiens) (Q13043 whole entry): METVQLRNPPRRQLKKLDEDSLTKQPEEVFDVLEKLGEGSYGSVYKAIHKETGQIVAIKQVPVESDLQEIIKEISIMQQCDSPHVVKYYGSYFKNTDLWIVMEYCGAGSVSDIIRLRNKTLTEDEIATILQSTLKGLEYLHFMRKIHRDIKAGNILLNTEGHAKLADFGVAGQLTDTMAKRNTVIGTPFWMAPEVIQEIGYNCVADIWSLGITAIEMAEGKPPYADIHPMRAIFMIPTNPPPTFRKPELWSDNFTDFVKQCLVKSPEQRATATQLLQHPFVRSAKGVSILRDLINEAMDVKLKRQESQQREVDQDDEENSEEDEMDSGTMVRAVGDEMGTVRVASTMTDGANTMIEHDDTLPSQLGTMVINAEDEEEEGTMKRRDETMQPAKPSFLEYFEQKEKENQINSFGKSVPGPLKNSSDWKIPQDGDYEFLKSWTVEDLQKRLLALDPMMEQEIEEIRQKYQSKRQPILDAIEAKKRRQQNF
Chain of Muscarinic acetylcholine receptor M5 (Homo sapiens) (P08912 whole entry): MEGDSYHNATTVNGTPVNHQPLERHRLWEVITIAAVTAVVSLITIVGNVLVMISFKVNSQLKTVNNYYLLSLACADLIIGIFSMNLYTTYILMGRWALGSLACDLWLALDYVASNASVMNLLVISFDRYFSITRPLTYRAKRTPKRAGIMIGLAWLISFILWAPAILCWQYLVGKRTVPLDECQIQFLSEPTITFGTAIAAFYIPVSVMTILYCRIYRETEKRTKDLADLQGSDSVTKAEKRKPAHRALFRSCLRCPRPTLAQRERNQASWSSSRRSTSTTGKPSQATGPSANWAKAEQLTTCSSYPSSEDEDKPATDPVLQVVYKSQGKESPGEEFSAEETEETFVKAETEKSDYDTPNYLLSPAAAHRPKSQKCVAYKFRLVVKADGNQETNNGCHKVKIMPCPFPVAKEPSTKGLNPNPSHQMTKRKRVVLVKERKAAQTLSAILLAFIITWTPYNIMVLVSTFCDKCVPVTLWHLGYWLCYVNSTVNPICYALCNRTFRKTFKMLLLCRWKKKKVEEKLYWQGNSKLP
Chain of Tyrosine-protein kinase Fes/Fps (Homo sapiens) (P07332 whole entry): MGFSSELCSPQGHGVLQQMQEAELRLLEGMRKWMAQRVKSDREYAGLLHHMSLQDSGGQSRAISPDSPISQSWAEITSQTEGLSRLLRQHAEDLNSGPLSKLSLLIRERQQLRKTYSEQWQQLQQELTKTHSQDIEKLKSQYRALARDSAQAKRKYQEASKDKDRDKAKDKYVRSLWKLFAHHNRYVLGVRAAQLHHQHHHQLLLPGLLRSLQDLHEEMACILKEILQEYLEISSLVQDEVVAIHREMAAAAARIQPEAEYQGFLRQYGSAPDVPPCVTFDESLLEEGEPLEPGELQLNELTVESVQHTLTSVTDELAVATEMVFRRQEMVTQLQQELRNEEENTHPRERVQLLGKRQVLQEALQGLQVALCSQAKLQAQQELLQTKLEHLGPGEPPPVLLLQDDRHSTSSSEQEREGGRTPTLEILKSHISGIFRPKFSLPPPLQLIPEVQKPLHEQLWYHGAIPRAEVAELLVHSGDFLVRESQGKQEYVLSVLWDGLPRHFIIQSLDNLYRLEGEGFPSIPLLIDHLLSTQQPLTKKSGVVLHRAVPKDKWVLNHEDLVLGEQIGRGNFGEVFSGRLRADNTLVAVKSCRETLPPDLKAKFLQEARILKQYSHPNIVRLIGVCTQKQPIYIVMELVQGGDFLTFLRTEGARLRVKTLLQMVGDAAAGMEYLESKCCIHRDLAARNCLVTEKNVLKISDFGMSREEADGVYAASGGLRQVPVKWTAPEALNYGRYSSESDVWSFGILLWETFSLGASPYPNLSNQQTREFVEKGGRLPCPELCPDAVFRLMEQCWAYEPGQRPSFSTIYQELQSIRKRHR

Take `C[C@@H]1CN(c2ncc(Cl)c(Nc3ccc4c(c3)n(CCC(C)(C)O)c(=O)n4C)n2)C[C@H](C)C1(F)F`: the LogFC in experiment [1] is 0.0258; in experiment [10] it was -0.235; in experiment [14], -0.0251; in [15] it was -2.79. The Tm in experiment [2] is 46 °C; in experiment [4], 41 °C; in experiment [5] it was 56 °C; in experiment [6], 39 °C; in experiment [7] it was 44 °C; in experiment [11] it was 45 °C. For the same molecule, the Tm in [16] was 43 °C; in experiment [17] it was 45 °C; in experiment [18] it was 45 °C; in experiment [20], 44 °C; in experiment [21], 36 °C. Also, the inhibition was -2.67% in experiment [3]; 7.28% in [8]; 13.2% in experiment [9]; 50.8% in experiment [12]; 5.99% in experiment [13]; 20.6% in experiment [19].
